Experiments:
[1] = biological target: T1, Kappa-type opioid receptor (Homo sapiens, UniProt P41145); test: Agonist activity at human kappa opioid receptor stably transfected in CHO cells by [35S]GTP-gamma-S assay; format: functional, cell-based
[2] = biological target: T1, Kappa-type opioid receptor; test: Agonist activity at human kappa opioid receptor stably transfected in CHO cells by [35S]GTPgammaS assay relative to (-)-U50488; format: functional, cell-based
Mu-type opioid receptor = Mu-type opioid receptor (Homo sapiens, UniProt P35372); test: Displacement of [125I]IOXY from human mu opioid receptor
[3] = biological target: T1, Kappa-type opioid receptor; test: Displacement of [125I]IOXY from human kappa opioid receptor
[4] = biological target: Delta-type opioid receptor (Homo sapiens, UniProt P41143); test: Displacement of [125I]IOXY from human delta opioid receptor
Delta-type opioid receptor, sequence (P41143 whole entry): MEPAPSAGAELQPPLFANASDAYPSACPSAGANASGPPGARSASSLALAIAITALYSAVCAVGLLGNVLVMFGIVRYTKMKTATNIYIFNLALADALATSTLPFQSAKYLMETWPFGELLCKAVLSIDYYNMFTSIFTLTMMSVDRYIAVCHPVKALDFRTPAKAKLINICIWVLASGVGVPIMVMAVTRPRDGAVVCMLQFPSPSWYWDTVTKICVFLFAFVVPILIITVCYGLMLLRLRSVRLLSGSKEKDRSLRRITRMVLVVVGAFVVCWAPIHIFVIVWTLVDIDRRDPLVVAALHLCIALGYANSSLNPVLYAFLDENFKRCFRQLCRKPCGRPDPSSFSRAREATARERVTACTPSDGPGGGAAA

T1 sequence (P41145 whole entry): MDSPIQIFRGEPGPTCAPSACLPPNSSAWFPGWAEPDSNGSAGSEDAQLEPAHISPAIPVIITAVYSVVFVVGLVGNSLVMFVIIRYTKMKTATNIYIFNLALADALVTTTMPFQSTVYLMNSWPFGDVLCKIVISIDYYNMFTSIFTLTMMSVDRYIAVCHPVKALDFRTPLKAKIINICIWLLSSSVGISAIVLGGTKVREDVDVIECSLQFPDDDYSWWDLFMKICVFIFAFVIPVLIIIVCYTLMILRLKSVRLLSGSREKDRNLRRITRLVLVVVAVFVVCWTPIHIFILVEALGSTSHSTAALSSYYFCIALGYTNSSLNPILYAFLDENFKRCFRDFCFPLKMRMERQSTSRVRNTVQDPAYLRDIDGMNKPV
Mu-type opioid receptor, sequence (P35372 whole entry): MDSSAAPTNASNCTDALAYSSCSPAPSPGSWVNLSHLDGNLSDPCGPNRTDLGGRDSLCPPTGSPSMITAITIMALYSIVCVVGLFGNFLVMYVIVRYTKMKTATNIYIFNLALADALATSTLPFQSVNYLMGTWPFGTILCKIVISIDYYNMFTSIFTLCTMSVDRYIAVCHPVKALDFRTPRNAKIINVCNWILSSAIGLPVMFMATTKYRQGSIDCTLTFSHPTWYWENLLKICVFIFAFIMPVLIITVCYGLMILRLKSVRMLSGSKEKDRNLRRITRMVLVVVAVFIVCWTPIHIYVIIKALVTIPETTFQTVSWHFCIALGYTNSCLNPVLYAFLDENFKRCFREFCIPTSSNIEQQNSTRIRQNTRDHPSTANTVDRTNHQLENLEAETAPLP

| Compound | ED50 [1] [µM] | Emax [2] [%] | Ki (Mu-type opioid receptor) [µM] | Ki [3] [µM] | Ki [4] [µM] |
| --- | --- | --- | --- | --- | --- |
| COC(=O)[C@@H]1C[C@H](OC(C)=O)C(=O)[C@H]2[C@@]1(C)CC[C@H]1C(=O)O[C@H](c3ccn(S(=O)(=O)c4ccccc4)c3)C[C@]21C | 9.16 | 60 | > 10 | 0.41 | > 10 |
| COC(=O)[C@@H]1C[C@H](OC(C)=O)C(=O)[C@H]2[C@@]1(C)CC[C@H]1C(=O)O[C@H](c3ccn(S(=O)(=O)c4ccc(OC)cc4)c3)C[C@]21C | 15.2 | 60 | > 10 | 1.62 | > 10 |
| COC(=O)c1coc([C@@H]2C[C@]3(C)[C@H]4C(=O)[C@@H](OC(C)=O)C[C@@H](C(=O)OC)[C@]4(C)CC[C@H]3C(=O)O2)n1 |  |  | > 10 | 8.53 | > 10 |
| COC(=O)[C@@H]1C[C@H](OC(C)=O)C(=O)[C@H]2[C@@]1(C)CC[C@H]1C(=O)O[C@H](c3ccn(S(C)(=O)=O)c3)C[C@]21C | 3.6 | 70 | > 10 | 0.84 | > 10 |

Source: ChEMBL document CHEMBL1148513, “Synthetic studies of neoclerodane diterpenes from Salvia divinorum: selective modification of the furan ring” (Bioorg Med Chem Lett, 2006)
